Tests used:
[1] = biological target: Serine/threonine-protein kinase PAK 1 (Homo sapiens) (UniProt Q13153); assay: Inhibition of PAK1 (unknown origin)
[2] = biological target: Serine/threonine-protein kinase PAK 1 (Homo sapiens) (UniProt Q13153); assay: Inhibition of PAK1 (unknown origin) using 5-FAM-KPDRKKRYTVVGNPY-amide as substrate incubated for 120 mins by caliper off-chip mobility shift assay
[3] = biological target: Serine/threonine-protein kinase PAK 1 (Homo sapiens) (UniProt Q13153); assay: Inhibition of PAK1 (unknown origin) in presence of ATP
[4] = biological target: Serine/threonine-protein kinase PAK 1 (Homo sapiens) (UniProt Q13153); assay: Inhibition of PAK1 (unknown origin) in presence of ATP by Z-LYTE enzymatic kinase assay
[5] = biological target: Serine/threonine-protein kinase PAK1; assay: Inhibition of human recombinant PAK1 using KKRNRRLSVA as substrate assessed as inhibition constant preincubated with compound for 10 mins followed by substrate addition and measured after 60 mins by FRET assay

Sequence of Serine/threonine-protein kinase PAK 1 (Homo sapiens) (Q13153 whole entry, looked up): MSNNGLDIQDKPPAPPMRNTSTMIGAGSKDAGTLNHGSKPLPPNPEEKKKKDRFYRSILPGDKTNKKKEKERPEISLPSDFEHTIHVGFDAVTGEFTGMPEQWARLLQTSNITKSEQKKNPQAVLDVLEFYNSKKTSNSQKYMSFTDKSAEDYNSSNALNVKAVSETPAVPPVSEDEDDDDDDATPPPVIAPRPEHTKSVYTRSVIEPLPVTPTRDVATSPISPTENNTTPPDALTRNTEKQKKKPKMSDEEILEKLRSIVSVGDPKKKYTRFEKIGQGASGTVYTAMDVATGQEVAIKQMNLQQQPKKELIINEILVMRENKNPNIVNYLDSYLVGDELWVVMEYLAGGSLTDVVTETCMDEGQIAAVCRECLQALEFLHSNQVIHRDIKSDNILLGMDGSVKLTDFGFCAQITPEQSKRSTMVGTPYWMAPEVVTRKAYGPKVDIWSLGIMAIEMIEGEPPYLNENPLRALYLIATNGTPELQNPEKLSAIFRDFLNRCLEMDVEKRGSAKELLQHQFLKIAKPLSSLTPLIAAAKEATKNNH

Row | IC50 [1] | Structure (SMILES) | other results
1 | 340 nM | CCN1c2ccc(F)cc2N=C(N2CCN(C)CC2)c2cc(Cl)ccc21 | –
2 | 8 nM | CN(Cc1ccc2[nH]ccc2n1)c1nccc(Nc2cc([C@H]3C[C@@H]3F)[nH]n2)n1 | –
3 | – | O=C(c1ccccc1Cl)c1n[nH]c2ncc(-c3cnn(C4CCNCC4)c3)cc12 | IC50 [2]: 20 nM
4 | 4 nM | CCn1c(=O)c(-c2ccc(-c3noc(C)n3)cc2Cl)cc2cnc(Nc3ccc(C4CCN(C)CC4)cc3)nc21 | –
5 | 1.6 nM | CCN(Cc1ccc2[nH]cnc2c1Cl)c1nccc(Nc2cc(C(C)C)[nH]n2)n1 | –
6 | – | O=C1NC(=O)c2cc(-c3ccccn3)ccc21 | IC50 [3]: > 100000 nM
7 | – | CCn1c(=O)c(-c2ccc(Cl)cc2Cl)cc2cnc(Nc3ccc(N4CCN(C)CC4)cc3)nc21 [FRAX414] | IC50 [4]: 20 nM
8 | – | Cc1nc2ccc(C#CC(C)(C)O)cc2n1-c1ncnc(N)n1 | Ki [5]: 15300 nM
9 | – | CN1CCN(c2ccc(Nc3ncc4ccc(=O)n(C5CCCC5)c4n3)cc2)CC1 [Pyrido[2,3-d]pyrimidin-7-one 1] | IC50 [4]: 483 nM

Row | Structure (SMILES) | IC50 [1] | other results
10 | CN[C@@H]1C[C@H]2O[C@@](C)([C@@H]1OC)n1c3ccccc3c3c4c(c5c6cc(O)ccc6n2c5c31)C(=O)NC4 | 1 nM | –
